Results reported in patent publication US12336981B2, “Compounds and compositions for the inhibition of NAMPT” (Valo Health, Inc., priority 2010, dated 2025).
pIC50: −log10 of the molar value. Like-named read-outs stand apart in the source and are kept apart here.

How the values were obtained:
[1] = tested on: A2780 cells; assay: In-vitro cell proliferation assay (SRB), A2780 cells; format: cell-based; conditions: Homo sapiens, A2780, 72 h, A2780 cells, 72 hours, read-out: A2780 IC50
How it was run: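 Growth inhibition was derived from background-corrected SRB absorbance (570 nm), measured on cells fixed in 6% TCA after three days of compound treatment under 5% CO2 at 37° C.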

[2] = biological target: T1, NAMPT (Homo sapiens, UniProt P43490); assay: Biochemical inhibition assay: NAMPT enzymatic reaction, NMN quantified by mass spectrometry; conditions: for pIC50: read-out: Biochem IC50
T1 construct: His tag; host or cells: E. coli
T1 sequence (P43490 whole entry): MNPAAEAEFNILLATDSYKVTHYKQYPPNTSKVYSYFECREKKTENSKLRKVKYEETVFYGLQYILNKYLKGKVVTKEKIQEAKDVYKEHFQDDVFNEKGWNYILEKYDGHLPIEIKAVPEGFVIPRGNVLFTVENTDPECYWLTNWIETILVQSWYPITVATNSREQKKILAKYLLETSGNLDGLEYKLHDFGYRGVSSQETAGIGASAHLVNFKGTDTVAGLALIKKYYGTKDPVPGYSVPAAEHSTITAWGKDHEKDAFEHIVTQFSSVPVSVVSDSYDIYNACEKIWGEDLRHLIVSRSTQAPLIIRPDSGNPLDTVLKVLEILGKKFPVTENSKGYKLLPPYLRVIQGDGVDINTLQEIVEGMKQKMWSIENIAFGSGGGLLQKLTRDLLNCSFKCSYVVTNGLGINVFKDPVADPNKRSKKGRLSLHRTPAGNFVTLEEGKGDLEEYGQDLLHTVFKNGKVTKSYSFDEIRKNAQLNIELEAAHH
How it was run: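 Inhibition of E. coli-expressed His-tagged human NAMPT, measured as NMN formation by mass spectrometry after a 30 min room-temperature reaction containing 1 μM NAM, 100 μM PRPP and 2.5 mM ATP.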

Cc1nc(-c2cccc(S(=O)(=O)c3ccc(CNC(=O)c4cnc5nccn5c4)cc3)c2)no1
pIC50 ([1]; SRB): 8.64 | pIC50 ([2]; NAMPT enzymatic assay): 8.55

O=C(NCc1ccc(S(=O)(=O)c2cc(C(F)(F)F)ccn2)cc1)c1cc2ccncc2o1 [N-({4-[4-(trifluoromethyl)pyridine-2-sulfonyl]phenyl}methyl)furo[2,3-c]pyridine-2-carboxamide]
pIC50 ([1]; SRB): 8.21 | pIC50 ([2]; NAMPT enzymatic assay): 7.86

O=C(NCc1ccc(S(=O)(=O)c2ccc(Cl)cc2C(F)(F)F)cc1)c1ccc2nccn2c1
pIC50 ([1]; SRB): 8.07 | pIC50 ([2]; NAMPT enzymatic assay): 7.70

Cc1ccc(S(=O)(=O)c2ccc(CNC(=O)c3cc4ccncc4s3)cc2)cc1C [N-({4-[(3,4-dimethylbenzene)sulfonyl]phenyl}methyl)thieno[2,3-c]pyridine-2-carboxamide]
pIC50 ([1]; SRB assay): 8.64 | pIC50 ([2]; NAMPT enzymatic reaction): 8.22

COc1cc(OC)cc(S(=O)(=O)c2ccc(CNC(=O)c3cnc4nccn4c3)cc2)c1 [N-({4-[(3,5-dimethoxybenzene)sulfonyl]phenyl}methyl)imidazo[1,2-a]pyrimidine-6-carboxamide]
pIC50 ([1]; SRB): 8.80 | pIC50 ([2]; NAMPT enzymatic reaction): 8.62

O=C(NCc1ccc(S(=O)(=O)c2ccc(N3CCOCC3)cc2)cc1)c1cnc2nccn2c1
pIC50 ([1]; SRB): 8.40 | pIC50 ([2]; NAMPT enzymatic assay): 8.77

COc1ccc(S(=O)(=O)c2ccc(CNC(=O)c3cnc4[nH]ncc4c3)cc2)c(OC)c1
pIC50 ([1]; SRB): 7.35 | pIC50 ([2]; NAMPT enzymatic reaction): 6.76

CCCCOc1ccc(S(=O)(=O)c2ccc(CNC(=O)c3ccc4nccn4c3)cc2)cc1F
pIC50 ([1]; SRB): 8.51 | pIC50 ([2]; NAMPT enzymatic reaction): 8.21

CCOCc1ccccc1S(=O)(=O)c1ccc(CNC(=O)c2cnc3nccn3c2)cc1
pIC50 ([1]; SRB): 7.40 | pIC50 ([2]; NAMPT enzymatic assay): 8.43

Cc1cc(Cl)cc(S(=O)(=O)c2ccc(CNC(=O)c3cnc4nccn4c3)cc2)c1
pIC50 ([1]; SRB): 8.64 | pIC50 ([2]; NAMPT enzymatic reaction): 8.32

Cn1ncc2cccc(S(=O)(=O)c3ccc(CNC(=O)c4cc5ccncc5o4)cc3)c21 [N-{[4-(1-methyl-1H-indazole-7-sulfonyl)phenyl]methyl}furo[2,3-c]pyridine-2-carboxamide]
pIC50 ([1]; SRB): 7.56 | pIC50 ([2]; NAMPT enzymatic assay): 7.94

CCOc1ccccc1S(=O)(=O)c1ccc(CNC(=O)c2cc3ccncc3o2)cc1 [N-({4-[(2-ethoxybenzene)sulfonyl]phenyl}methyl)furo[2,3-c]pyridine-2-carboxamide]
pIC50 ([1]; SRB): 8.22 | pIC50 ([2]; NAMPT enzymatic reaction): 7.18

CS(=O)(=O)c1ccc(S(=O)(=O)c2ccc(CNC(=O)c3ccc4nccn4c3)cc2)cc1 [N-({4-[(4-methanesulfonylbenzene)sulfonyl]phenyl}methyl)imidazo[1,2-a]pyridine-6-carboxamide]
pIC50 ([1]; SRB): 7.61 | pIC50 ([2]; NAMPT enzymatic reaction): 6.98

O=C(NCc1ccc(S(=O)(=O)c2ccc(F)c(OCC(F)(F)F)c2)cc1)c1cc2ccncc2o1
pIC50 ([1]; SRB): 7.59 | pIC50 ([2]; NAMPT enzymatic assay): 8.06

COc1cc(Cl)ccc1S(=O)(=O)c1ccc(CNC(=O)c2cc3cnccc3[nH]2)cc1 [N-({4-[(4-chloro-2-methoxybenzene)sulfonyl]phenyl}methyl)-1H-pyrrolo[3,2-c]pyridine-2-carboxamide]
pIC50 ([1]; SRB assay): 8.52 | pIC50 ([2]; NAMPT enzymatic reaction): 7.66

O=C(Nc1ccc(S(=O)(=O)N2CCCCC2)cc1)c1cc2cnccc2[nH]1 [N-[4-(piperidine-1-sulfonyl)phenyl]-1H-pyrrolo[3,2-c]pyridine-2-carboxamide]
pIC50 ([1]; SRB assay): 8.22 | pIC50 ([2]; NAMPT enzymatic reaction): 8.10

CCNC(=O)c1ccc(S(=O)(=O)c2ccc(CNC(=O)c3ccc4nccn4c3)cc2)cc1
pIC50 ([1]; SRB): 8.20 | pIC50 ([2]; NAMPT enzymatic assay): 7.92

CC(C)c1cccc(S(=O)(=O)c2ccc(CNC(=O)c3cc4ccncc4s3)cc2)c1 [N-[(4-{[3-(propan-2-yl)benzene]sulfonyl}phenyl)methyl]thieno[2,3-c]pyridine-2-carboxamide]
pIC50 ([1]; SRB assay): 8.59 | pIC50 ([2]; NAMPT enzymatic reaction): 8.05

O=C(NCc1ccc(S(=O)(=O)c2cnc3n2CCCCC3)cc1)c1cc2ccncc2o1 [N-[(4-{5H,6H,7H,8H,9H-imidazo[1,2-a]azepine-3-sulfonyl}phenyl)methyl]furo[2,3-c]pyridine-2-carboxamide]
pIC50 ([1]; SRB): 8.24 | pIC50 ([2]; NAMPT enzymatic assay): 8.22

N#Cc1ccc(S(=O)(=O)c2ccc(CNC(=O)c3cc4cnccc4[nH]3)cc2)cc1 [N-({4-[(4-cyanobenzene)sulfonyl]phenyl}methyl)-1H-pyrrolo[3,2-c]pyridine-2-carboxamide]
pIC50 ([1]; SRB): 7.60 | pIC50 ([2]; NAMPT enzymatic reaction): 7.95

COc1cc(C)cc(S(=O)(=O)c2ccc(CNC(=O)c3cc4ccncc4o3)cc2)c1OC
pIC50 ([1]; SRB): 8.15 | pIC50 ([2]; NAMPT enzymatic reaction): 7.82

O=C(NCc1ccc(S(=O)(=O)c2cccc3c2OCC3)cc1)c1ccc2nccn2c1 [N-{[4-(2,3-dihydro-1-benzofuran-7-sulfonyl)phenyl]methyl}imidazo[1,2-a]pyridine-6-carboxamide]
pIC50 ([1]; SRB): 8.19 | pIC50 ([2]; NAMPT enzymatic assay): 7.90

CCNC(=O)c1ccc(S(=O)(=O)c2ccc(CNC(=O)c3cc4ccncc4s3)cc2)cc1
pIC50 ([1]; SRB): 8.48 | pIC50 ([2]; NAMPT enzymatic assay): 8.82

O=C(NCc1ccc(S(=O)(=O)c2ccc(N3CCOCC3)nc2)cc1)c1cc2ccncc2s1 [N-({4-[6-(morpholin-4-yl)pyridine-3-sulfonyl]phenyl}methyl)thieno[2,3-c]pyridine-2-carboxamide]
pIC50 ([1]; SRB): 9.15 | IC50 ([2]; Biochem IC50 uM): 0.0041 µM

O=C(NCc1ccc(S(=O)(=O)c2cccc3cc[nH]c23)cc1)c1cc2ccncc2s1 [N-{[4-(1H-indole-7-sulfonyl)phenyl]methyl}thieno[2,3-c]pyridine-2-carboxamide]
pIC50 ([1]; SRB assay): 8.57 | pIC50 ([2]; NAMPT enzymatic reaction): 8.52

Cc1ccc(S(=O)(=O)c2ccc(CNC(=O)c3cc4ccncc4s3)cc2)s1 [N-{[4-(5-methylthiophene-2-sulfonyl)phenyl]methyl}thieno[2,3-c]pyridine-2-carboxamide]
pIC50 ([1]; SRB assay): 8.11 | pIC50 ([2]; NAMPT enzymatic reaction): 8.30

COc1cc(C)cc(S(=O)(=O)c2ccc(CNC(=O)c3cnc4nccn4c3)cc2)c1
pIC50 ([1]; SRB): 8.89 | pIC50 ([2]; NAMPT enzymatic reaction): 8.80

O=C(NCc1ccc(S(=O)(=O)c2cnc3ccc(Cl)cn23)cc1)c1cc2ccncc2o1 [N-[(4-{6-chloroimidazo[1,2-a]pyridine-3-sulfonyl}phenyl)methyl]furo[2,3-c]pyridine-2-carboxamide]
pIC50 ([1]; SRB): 9.40 | pIC50 ([2]; NAMPT enzymatic assay): 8.92

CCOc1ccc(S(=O)(=O)c2ccc(CNC(=O)c3ccc4nccn4c3)cc2)cc1F
pIC50 ([1]; SRB): 8.74 | pIC50 ([2]; NAMPT enzymatic reaction): 7.90

O=C(NCc1ccc(S(=O)(=O)N2CCCCC2)cc1)c1ccc2[nH]ncc2c1 [N-{[4-(piperidine-1-sulfonyl)phenyl]methyl}-1H-indazole-5-carboxamide]
pIC50 ([1]; SRB assay): 7.80 | pIC50 ([2]; NAMPT enzymatic reaction): 7.74

Cc1ccc(S(=O)(=O)c2ccc(CNC(=O)c3cc4ccncc4o3)cc2)cc1C
pIC50 ([1]; SRB): 8.52 | pIC50 ([2]; NAMPT enzymatic reaction): 7.82

O=C(NCc1ccc(S(=O)(=O)c2cccc3ccsc23)cc1)c1cc2ccncc2s1 [N-{[4-(1-benzothiophene-7-sulfonyl)phenyl]methyl}thieno[2,3-c]pyridine-2-carboxamide]
pIC50 ([1]; SRB): 8.82 | pIC50 ([2]; NAMPT enzymatic assay): 8.82

COc1cc(Cl)ccc1S(=O)(=O)c1ccc(CNC(=O)c2cc3ccncc3o2)cc1
pIC50 ([1]; SRB): 7.61 | pIC50 ([2]; NAMPT enzymatic reaction): 8.07

O=C(NCc1ccc(S(=O)(=O)c2ccccc2)cc1)c1ccc2ncccc2n1 [N-{[4-(benzenesulfonyl)phenyl]methyl}-1,5-naphthyridine-2-carboxamide]
pIC50 ([1]; SRB assay): < 5.00 | pIC50 ([2]; NAMPT enzymatic reaction): 6.06

O=C(NCc1ccc(S(=O)(=O)c2cccc(CN3CCCCC3)c2)cc1)c1cnc2nccn2c1
pIC50 ([1]; SRB): 7.51 | pIC50 ([2]; NAMPT enzymatic assay): 8.72

COc1cc(Cl)cc(S(=O)(=O)c2ccc(CNC(=O)c3cc4ccncc4s3)cc2)c1
pIC50 ([1]; SRB): 8.96 | pIC50 ([2]; NAMPT enzymatic reaction): 8.39

O=C(NCc1ccc(S(=O)(=O)c2cccc3c2sc2ccccc23)cc1)c1cnc2nccn2c1
pIC50 ([1]; SRB): 8.70 | pIC50 ([2]; NAMPT enzymatic assay): 8.74
